Publication PMC6390472, “‘Second-generation’ 1,2,3-triazole-based inhibitors of Porphyromonas gingivalis adherence to oral streptococci and biofilm formation” (MedChemComm, 2019)
Read-outs that look alike come from different tables or passages of the source.

Assays:
[1] = system: P. gingivalis adherence to S. gordonii; test: Biofilm model of P. gingivalis adherence to S. gordonii (confocal, green/red fluorescence ratio); assay type: cell-based, P. gingivalis ATCC33277 / S. gordonii DL-1; details: inhibition of P. gingivalis adherence to S. gordonii; concentration that reduced ratio of green to red fluorescence by 50%; tested 0–60 μM
Description: (§1) P. gingivalis ATCC33277 was grown in reduced trypticase soy broth (Difco) supplemented with 0.5 percent yeast extract, 1 μg mL^–1 menadione, and 5 μg mL^–1 hemin. Twenty five milliliters of medium were reduced for 24 h under anaerobic conditions by equilibrating in an atmosphere consisting of 10% CO2, 10% H2, and 80% N2. Following equilibration, P. gingivalis was inoculated in the medium and grown for 48 h at 37 °C under anaerobic conditions. S. gordonii DL-1 (1) was cultured aerobically without shaking in brain heart infusion (BHI) broth supplemented with 1 percent yeast extract for 16 hours at 37 °C. For some compounds that inhibited P. gingivalis adherence to S. gordonii, we determined their effect on planktonic growth of P. gingivalis and S. gordonii. The appropriate growth medium (10 ml) was supplemented with 10 μl of a 40 mM compound stock solution in DMSO. After inoculation, broth cultures were incubated as described above and compared to cultures grown in medium that was supplemented only with 0.1% DMSO. The cell density of each culture was determined by measuring the optical density at 600 nm (O.D.600nm) and the percent growth inhibition/stimulation was calculated using the following equation: [(O.D.600nm of the control/O.D.600nm of the culture grown in the presence of compound) – 1] × 100.
Two species biofilms were formed essentially as previously described.[39] To prepare bacterial cells for biofilm culture, 10 ml of an overnight S. gordonii culture was centrifuged at 5600 rpm for 5 min and the cell pellet was suspended in 1 mL sterile PBS. Subsequently, 20 μL of 5 mg ml^–1 hexidium iodide (Molecular Probes) was added to the cell suspension and incubated for 15 min with gentle shaking at room temperature in the dark. The labeled cells were centrifuged as described above, washed with phosphate-buffered saline (10 mM Na2HPO4, […], […], and 2.7 mM KCl, pH 7.2; [PBS]) and the cell pellet was suspended in PBS at a final O.D.600nm of 0.8. Similarly, 10 mL of a 48 h culture of P. gingivalis was centrifuged at 5600 rpm for 15 min, the cell pellet was suspended in 1 mL PBS and 20 μL of 5(6)-carboxyfluorescein N-hydroxysuccinimide ester (4 mg ml^–1, Molecular Probes, Inc.) was added. After incubation for 30 min with gentle shaking at room temperature in the dark, the suspension was centrifuged and washed as described above and suspended in PBS at a final O.D.600nm of 0.4. For biofilm cultures, 1 mL of labeled S. gordonii cells was added to each well of a 12-well microtiter plate (Greiner Bio-one) containing a circular coverslip (Fisher brand) and incubated in an anaerobic chamber with rotary shaking for 24 h at 37 °C. Unbound cells were removed by aspiration and 1 ml of labeled P. gingivalis cells containing the desired concentration of test compound was added and incubated under anaerobic conditions for 22 h at 37 °C. Test compounds were dissolved in dimethyl sulfoxide (DMSO) to generate 1000× stock solutions and were routinely tested over a final concentration range of 0–60 μM. 1 μL of the appropriate stock solution was added to each 1 mL aliquot of labeled P. gingivalis cells and incubated for 30 min at room temperature prior to adding the suspension to the microtiter plate wells. For control biofilms, 1 μL of DMSO was added to 1 mL of labeled P. gingivalis and incubated as described above.
To visualize P. gingivalis/S. gordonii biofilms, unbound P. gingivalis cells were removed by aspiration and coverslips were washed once with PBS. Biofilms were fixed by incubating the coverslips with 1 mL of 4% paraformaldehyde for 5 min followed by two washes with PBS. The coverslips were then removed, placed face down on a glass microscope slide containing a drop of antifade reagent (Life Technology) and sealed with nail polish. […]

P. gingivalis = test: Planktonic growth of P. gingivalis (O.D.600nm); assay type: cell-based, P. gingivalis ATCC33277; details: Porphyromonas gingivalis, read-out: Percent inhibition of: P. gingivalis (planktonic growth)
Description: as §1

S. gordonii = test: Planktonic growth of S. gordonii (O.D.600nm); assay type: cell-based, S. gordonii DL-1; details: Streptococcus gordonii, read-out: Percent inhibition of: S. gordonii (planktonic growth)
Description: as §1

TIGK cells = test: Cellular ATP levels, CellTiterGlo; assay type: cell-based, Human; details: for ATP levels: 95 (5, 20, 40 μM), 111 (5, 20, 60 μM), 115 (5, 10, 20 μM), 122 (5, 20, 60 μM)
Description: Human telomerase immortalized gingival keratinocytes (TIGKs) were provided by Dr. Richard Lamont (University of Louisville) and were authenticated by comparison to primary gingival epithelial cells for cell morphology, growth, cytokeratin expression and the expression of toll-like receptors. TIGKs were cultured at 37 °C in an atmosphere of 5% CO2 in Basal Medium Dermalife K complete kit with Supplements (LifeLine, Frederick, MD). Cultures were incubated for 5 days and attained >95% confluence.
Cell metabolic activity was assessed by quantifying total ATP levels in cell culture samples using CellTiterGlo reagent (Promega). TIGK and J774A.1 cells were cultured and incubated with compounds as described above, washed three times with sterile PBS and incubated with 100 μl of CellTiterGlo substrate for 2 min with shaking and for an additional 10 min without shaking. Total light production was measured using a Victor 3 multi-label plate reader (PerkinElmer) in luminometer mode. All samples were assayed in triplicate.

[2] = 40 μM compound, cultures incubated overnight, vs 0.1% DMSO

Row | SMILES | IC50 [1] [µM] | inhibition at 40 µM (P. gingivalis; [2]) [%] | inhibition at 40 µM (S. gordonii; [2]) [%] | also measured
1 | Fc1ccc(Nc2nc(Nc3ccc(F)cc3)nc(-c3cn(-c4ccc(-c5nc(-c6ccc(F)cc6)c(-c6ccc(F)cc6)o5)cc4)nn3)n2)cc1 [Compound 115] | 2.3 | -2.8 | -0.6 | ATP levels (TIGK cells; 18 h exposure): did not significantly reduce the levels of ATP
2 | O=S(=O)(Cc1nc(-c2ccc(Cl)cc2)c(-c2ccc(Cl)cc2)o1)c1ccc(-n2cc(-c3ccc(F)cc3)nn2)cc1 [Compound 56] | 6.3 | -2.7 | 6.2 ± 8.8 | 
3 | COc1ccccc1-c1cn(-c2ccc(S(=O)(=O)Cc3nc(-c4ccc(Cl)cc4)c(-c4ccc(Cl)cc4)o3)cc2)nn1 [Compound 57] | 20 |  |  | melting point: 236 to 238 °C
4 | Fc1ccc(Nc2nc(Nc3ccc(F)cc3)nc(-c3cn(-c4cccc(-c5nc(-c6ccccc6)c(-c6ccccc6)o5)c4)nn3)n2)cc1 [Compound 111] | 4.3 |  |  | inhibition at 40 µM (P. gingivalis): 8.3 ± 3.6%; inhibition at 40 µM (S. gordonii): 2.9 ± 3.9%; Concentration with cytotoxic activity relative to IC50 for inhibition of adherence (TIGK cells; 60 μM vs IC50): approximately 15 fold; Reduction of ATP levels (TIGK cells; 18 h exposure, 60 μM, p < 0.05 vs 0.1% DMSO): statistically significant; ATP levels (TIGK cells; 18 h exposure): dose-dependent reduction of ATP levels
5 | Fc1ccc(Nc2nc(Nc3ccc(F)cc3)nc(-c3cn(-c4ccccc4-c4nc(-c5ccco5)c(-c5ccco5)o4)nn3)n2)cc1 [Compound 122] | 2.4 | 2.5 ± 5.4 | -0.6 | ATP levels (TIGK cells; 18 h exposure): did not significantly reduce the levels of ATP
6 | CN(C)[C@@H]1C(O)=C(C(N)=O)C(=O)[C@@]2(O)C(O)=C3C(=O)c4c(O)cccc4[C@@](C)(O)[C@H]3C[C@@H]12 [Tet, tetracycline, reference compound] |  |  |  | inhibition at 10 µg/mL (P. gingivalis; 10 μg ml^–1 tetracycline): 95.7 ± 1.2%; inhibition at 10 µg/mL (S. gordonii; 10 μg ml^–1 tetracycline): 94.2 ± 1.7%
7 | CCN(CC)c1nc(-c2cn(-c3ccc(-c4nc(-c5ccc(F)cc5)c(-c5ccc(F)cc5)o4)cc3)nn2)nc(N(CC)CC)n1 [Compound 93] | 9.4 | 2 ± 6.1 | -2 | 
8 | COc1ccccc1-c1cn(-c2ccc(S(=O)(=O)Cc3nc(-c4ccc(F)cc4)c(-c4ccc(F)cc4)o3)cc2)nn1 [Compound 54] | 21.2 | -3.4 | -3.3 | 
9 | Fc1ccc(-c2nc(-c3cccc(-n4cc(-c5nc(Nc6ccccc6F)nc(Nc6ccccc6F)n5)nn4)c3)oc2-c2ccc(F)cc2)cc1 [Compound 102] | 5 | -8.3 | -0.6 | 
10 | CCN(CC)c1nc(-c2cn(-c3ccc(-c4nc(-c5ccc(Cl)cc5)c(-c5ccc(Cl)cc5)o4)cc3)nn2)nc(N(CC)CC)n1 [Compound 95] | 3.7 | 0.4 ± 6.1 | -0.8 | ATP levels (TIGK cells; 18 h exposure): did not significantly reduce the levels of ATP
11 | Fc1ccc(Nc2nc(Nc3ccc(F)cc3)nc(-c3cn(-c4ccccc4-c4nc(-c5ccc(Cl)cc5)c(-c5ccc(Cl)cc5)o4)nn3)n2)cc1 [Compound 116] | > 40 |  |  | 
12 | CCN(CC)c1nc(-c2cn(-c3cccc(-c4nc(-c5ccc(OC)cc5)c(-c5ccc(OC)cc5)o4)c3)nn2)nc(N(CC)CC)n1 [Compound 96] | > 60 |  |  | 
13 | Fc1ccc(Nc2nc(Nc3ccc(F)cc3)nc(-c3cn(-c4ccc(-c5nc(-c6ccco6)c(-c6ccco6)o5)cc4)nn3)n2)cc1 [Compound 124] | 7.8 |  |  | 
14 | Fc1ccccc1Nc1nc(Nc2ccccc2F)nc(-c2cn(-c3cccc(-c4nc(-c5ccccc5)c(-c5ccccc5)o4)c3)nn2)n1 [Compound 100] | 9.6 |  |  | 
15 | CCCCCc1ccc(-c2cn(-c3ccc(S(=O)(=O)Cc4nc(-c5ccccc5)c(-c5ccccc5)o4)cc3)nn2)cc1 [Compound 43] | 36.6 |  |  | 
16 | COc1ccc2cc(-c3cn(-c4ccc([S+]([O-])Cc5nc(-c6ccccc6)c(-c6ccccc6)o5)cc4)nn3)ccc2c1 (centres unmarked) [Compound 33] | > 60 |  |  | 
17 | Fc1ccc(Nc2nc(Nc3ccc(F)cc3)nc(-c3cn(-c4ccc(-c5nc(-c6ccc(Cl)cc6)c(-c6ccc(Cl)cc6)o5)cc4)nn3)n2)cc1 [Compound 118] | 13.3 |  |  | 
18 | Fc1ccc(-c2nc(-c3ccc(-n4cc(-c5nc(Nc6ccccc6F)nc(Nc6ccccc6F)n5)nn4)cc3)oc2-c2ccc(F)cc2)cc1 [Compound 103] | 12.3 | -1.3 | -8.6 | 
19 | O=S(=O)(Cc1nc(-c2ccccc2)c(-c2ccccc2)o1)c1ccc(-n2cc(-c3cc(C(F)(F)F)cc(C(F)(F)F)c3)nn2)cc1 [Compound 45] | 38.5 |  |  | 
20 | Fc1ccccc1Nc1nc(Nc2ccccc2F)nc(-c2cn(-c3ccc(-c4nc(-c5ccco5)c(-c5ccco5)o4)cc3)nn2)n1 [Compound 109] | > 60 |  |  | 
21 | Fc1ccccc1Nc1nc(Nc2ccccc2F)nc(-c2cn(-c3cccc(-c4nc(-c5ccc(Cl)cc5)c(-c5ccc(Cl)cc5)o4)c3)nn2)n1 [Compound 104] | 33.8 |  |  | 
